The values below come from patent US20190265231A1, “GPCR (GPR113) INVOLVED IN FAT, FATTY ACID AND/OR LIPID-ASSOCIATED TASTE AND USE IN ASSAYS FOR IDENTIFYING TASTE MODULATORY” (SENOMYX, INC., priority 2015, published 2019).

Experiment [1] concerns GLX mice. Nature of the experiment: brief access licking after glossopharyngeal nerve transection (GLX). To be noted: C57Bl/6 mice, GLX versus SHAM. Type of experiment: in vivo. The procedure:
C57Bl/6 mice (Harlan) were trained to lick in the brief access licking. Following training mice were balanced for body weight and average number of licks per trial to water during training and assigned to a surgery group. Mice were allowed to recover for at least two weeks following surgery. They were given two days of licking to water (shutter training), food was taken away overnight and they were tested for their licking responses to soybean oil in […] over 2 days of testing. The next week they were tested in the same manner to sucrose. Following the last day of testing, mice were euthanized and their tongues were taken for histological analysis. CV papilla were cross sectioned and stained with hematoxylin/eosin. An observer blind to the surgical condition counted taste buds.

Experiment [2] has as its system GPR113 KO mice. Nature of the experiment: brief-access licking paradigms in WT and GPR113 KO mice. Format: in vivo. To be noted: for licking response of GPR113 KO mice compared with WT: GPR113 KO versus WT; for licking in response to increasing concentrations: WT mice. Here is the method: FIG. 10 contains mean (±SE) number of licks taken to a range of soybean oil concentrations and the vehicle emplex measured during 5-second trials in wild-type (WT; closed circles) and GPR113 knockout (KO; open circles) mice.
Several groups of mice underwent behavioral testing. […] We also tested groups of mice in brief-access licking paradigms. […] Mineral oil was tested as a control for viscosity.

With `OC[C@H]1O[C@@](CO)(O[C@H]2O[C@H](CO)[C@@H](O)[C@H](O)[C@H]2O)[C@@H](O)[C@@H]1O` [sucrose], the “concentration-dependent licking in GLX mice relative to SHAM operated controls” value in experiment [1] is listed as “identical increases in licking”. Also, in experiment [2], the “licking response of GPR113 KO mice compared with WT” value (shortened to “licking response … compared with WT”) is “responded similarly”.

Turning to `[Cl-].[K+]` [KCl], in experiment [2], the “licking response … compared with WT” value was “responded similarly”. The same measure, in the same setting: next, `O=C(O)CC(O)(CC(=O)O)C(=O)O` [citric acid]: “responded similarly”. As for `CCCCC/C=C\C/C=C\CCCCCCCC(=O)O` [linoleic acid], in experiment [2], the “licking response … compared with WT” value is on record as “absent or significantly diminished” and the “licking in response to increasing concentrations” value is reported as “increased licking”. As for `CCCCCCCC/C=C\CCCCCCCC(=O)O` [oleic acid], in experiment [2], the “licking response … compared with WT” value is “absent or significantly diminished” and the “licking in response to increasing concentrations” value is “increased licking”. As for `[Cl-].[Na+]` [NaCl], the “licking response … compared with WT” value in experiment [2] is given as “responded similarly”. Still for that read-out and setting: the entry for `C=C[C@H]1C[N@@]2CC[C@H]1C[C@H]2[C@H](O)c1ccnc2ccc(OC)cc12` [quinine] is “responded similarly”.
